According to PMC4168902 (2014):

What was measured:
[1] = tested on: poly dA–poly dT (DNA, polymer) A/T; assay: UV thermal melting at 260 nm; conditions: Na+ (sodium cacodylate, I = 0.05 M); sodium cacodylate pH 7.0; r = [compound]/[polynucleotide] = 0.3; per base
[2] = tested on: poly A–poly U (poly rA–poly rU) (RNA, polymer) A/U; assay: UV thermal melting at 260 nm; conditions: Na+ (sodium cacodylate, I = 0.05 M); sodium cacodylate pH 7.0; r = [compound]/[polynucleotide] = 0.3; per base
[3] = tested on: poly dAdT–poly dAdT (DNA, polymer) AT; assay: UV thermal melting at 260 nm; conditions: Na+ (sodium cacodylate, I = 0.05 M); sodium cacodylate pH 7.0; r = [compound]/[polynucleotide] = 0.3; per base
[4] = tested on: poly A–poly U (poly rA–poly rU) (RNA, polymer) A/U; assay: UV–vis titration, Scatchard fit; conditions: Na+ (sodium cacodylate, I = 0.05 M); sodium cacodylate pH 7.0, 25 °C; polynucleotide as nucleobases/phosphates; per base
[5] = tested on: poly dA–poly dT (DNA, polymer) A/T; assay: UV–vis titration, Scatchard fit; conditions: Na+ (sodium cacodylate, I = 0.05 M); sodium cacodylate pH 7.0, 25 °C; polynucleotide as nucleobases/phosphates; per base
[6] = tested on: poly dAdT–poly dAdT (DNA, polymer) AT; assay: UV–vis titration, Scatchard fit; conditions: Na+ (sodium cacodylate, I = 0.05 M); sodium cacodylate pH 7.0, 25 °C; polynucleotide as nucleobases/phosphates; per base
[7] = tested on: poly dG–poly dC (DNA, polymer) G/C; assay: UV–vis titration, Scatchard fit; conditions: Na+ (sodium cacodylate, I = 0.05 M); sodium cacodylate pH 7.0, 25 °C; polynucleotide as nucleobases/phosphates; per base

CCCCCCOc1ccccc1C(=O)C1=CNc2ccccc2N=CC(C(=O)c2ccccc2OCCC[n+]2ccccc2)=CNc2ccccc2N=C1
ΔTm [1]: 0 °C | ΔTm [2]: 0 °C | ΔTm [3]: 0 °C

C[N+](C)(C)CCCOc1ccccc1C(=O)C1=CNc2ccccc2N=CC(C(=O)c2ccccc2OCCCn2cnc3c(N)ncnc32)=CNc2ccccc2N=C1
log Ks [4]: 5.8 | log Ks [5]: 5.9 | ΔTm [1]: 0 °C | log Ks [6]: 5.5 | ΔTm [2]: 0 °C | log Ks [7]: 5.7 | ΔTm [3]: < 2 °C

Nc1ncnc2c1ncn2CCCCCCOc1ccccc1C(=O)C1=CNc2ccccc2N=CC(C(=O)c2ccccc2OCCCCCC[n+]2ccccc2)=CNc2ccccc2N=C1
log Ks [4]: 5.7 | log Ks [5]: 5.0 | ΔTm [1]: 0 °C | ΔTm [2]: 0 °C | log Ks [7]: 5.6 | ΔTm [3]: 0 °C

Nc1ncnc2c1ncn2CCCCCOc1ccccc1C(=O)C1=CNc2ccccc2N=CC(C(=O)c2ccccc2OCCCCC[n+]2ccccc2)=CNc2ccccc2N=C1
log Ks [4]: 6.6 | log Ks [5]: 5.4 | log Ks [7]: 5.8

Nc1ncnc2c1ncn2CCCOc1ccccc1C(=O)C1=CNc2ccccc2N=CC(C(=O)c2ccccc2OCCC[n+]2ccccc2)=CNc2ccccc2N=C1
log Ks [4]: 6.0 | log Ks [5]: 6.2 | ΔTm [1]: 0.7 °C | log Ks [6]: 6.1 | ΔTm [2]: 0.5 °C | log Ks [7]: 5.5 | ΔTm [3]: < 3 °C
